For data set [1] the following is noted: cited from earlier work; for sweetness intensity: background art values; for taste: taste in words, background art.
The nature of data set [2]: Sweetness intensity relative to sucrose, taste panel. The format is in vivo, Male subjects. To be noted: based on informal panel testing. The text has this: The sweetness intensity of the esters and amides of the present invention relative to sucrose can be determined according to the following procedure:
Male subjects are chosen at random from a group of about 20 persons who have previously been selected on the basis of proven tasting acuity, i.e., persons who could.easily recognize the four basic tastes (sweet, sour, bitter and salty) and who are adept at quantifying their own physiological response numerically. The subjects are asked to taste and expectorate about 10 ml of a test sample (temperature of about 22°C) having dissolved therein the ester of amide. […] Sweetness intensity of the test sample is recorded by the subject making a mark on the linear scale at a point they consider equal in sweetness among the standard samples; interpolation between standards is encouraged. After completion of the panel, a five point numeric scale is superimposed on the linear scales to obtain numerical data; data is averaged and recorded to.the nearest 0.25 unit..Equivalent sucrose sweetness is determined by referring to graphs of (w/v) sucrose concentration in the standard samples versus a linear numeric scale.
Sweetness intensity is calculated by dividing the concentration (w/v) of perceived sweetness by the concentration (w/v) of the ester or amide required to produce that sweetness. […]

For data set [3] the following is noted: carbonated beverages; background statement; cited from earlier work.

Where two headings read alike, the source gives them in different places. Non-standard residues stand in square brackets, D forms with d. Residues, ends and D or L forms follow the SMILES beside them. Phg = N[C@H](C(=O)O)c1ccccc1

In the case of `C[C@@H](NC(=O)[C@@H](N)CC(=O)O)C(=O)NC1C(C)(C)S(=O)(=O)C1(C)C`, the sweetness intensity in data set [1] is 1000 times that of sucrose.
Consider `CC12CCC(O1)C(C)(C)C2OC(=O)C(NC(=O)C(N)CC(=O)O)c1ccccc1` (single isomer, unassigned) [Example 2, alpha-L-Aspartyl-D-phenylglycine-alpha-7-oxa-fenchyl ester], for which the sweetness intensity result in data set [2] was “approximately 1000 X”.
On to `C[C@@H](NC(=O)[C@@H](N)CC(=O)O)C(=O)NC1C(C)(C)SC1(C)C` [2,2,4,4-tetramethylthietan-3-yl], for which, in data set [1], the sweetness intensity is 2000 times that of sucrose.
As to `CC1CCC(C)C1NC(=O)[C@@H](C)NC(=O)[C@@H](N)CC(=O)O` (stereo partly drawn) [2,5-dimethylcyclopentyl], in data set [1], the sweetness intensity is 520 times that of sucrose.
As to `CC1CCCC(C)C1NC(=O)[C@@H](C)NC(=O)[C@@H](N)CC(=O)O` (stereo partly drawn) [2,6-dimethylcyclohexyl], the sweetness intensity in data set [1] is reported as 600 times that of sucrose.
With `O=C1NS(=O)(=O)c2ccccc21` [Saccharin], in data set [1], the sweetness intensity entry is on record as “about 300 times that of sucrose” and the taste entry is given as “undesirable lingering bitter aftertaste”.
On to `COC(=O)[C@H](Cc1ccccc1)NC(=O)[C@@H](N)CC(=O)O` [aspartame, a/pha-L-aspartyl-L-phenylalanine lower alkyl esters, in particular the methyl ester known as aspartame] (H-Asp-Phe-OMe), for which the sweetness intensity in data set [1] is listed as 150-200 times that of sucrose. The hydrolytic stability result in data set [3] is “hydrolytically unstable in most carbonated beverages”.
Turning to `C[C@@H](NC(=O)[C@@H](N)CC(=O)O)C(=O)NC(C1CC1)C1CC1` [dicyclopropylcarbinyl], the sweetness intensity in data set [1] is on record as 1200 times that of sucrose.
Take `C[C@@H](NC(=O)[C@@H](N)CC(=O)O)C(=O)NC1C2(C)CCC(C2)C1(C)C` (stereo partly drawn) [fenchyl]: the sweetness intensity in data set [1] is 320 times that of sucrose.
Consider `COC(=O)[C@@H](Cc1ccccc1)NC(=O)[C@@H](N)CC(=O)O` [methyl ester of L-aspartyl-D-phenylalanine] (H-Asp-[dF]-OMe), for which, in data set [1], the taste entry was “bitter”.
`COC(=O)[C@@H](NC(=O)[C@@H](N)CC(=O)O)c1ccccc1` [methyl ester of L-aspartyl-L-phenylglycine] (H-Asp-[Phg]-OMe): in data set [1], the sweetness intensity was 100-1000 times that of sucrose and the taste entry is recorded as “quite sweet”.
Regarding `COC(=O)C(NC(=O)[C@@H](N)CC(=O)O)C(=O)OC1C2(C)CCC(C2)C1(C)C` (stereo partly drawn) [methyl], in data set [1] (listed as R^1a is methyl ester group, R^2a is fenchyl group), the sweetness intensity is reported as 22,200-33,200 times that of sucrose.

Source of the values: patent publication EP0168881B1, “Oxa-fenchyl esters and amides of alpha-l-aspartyl-d-phenylglycine” (THE PROCTER & GAMBLE COMPANY, priority 1984, dated 1986).
